# Measurements published in US9815842B2, “Pyrazolo pyrimidine derivatives and their use as MALT1 inhibitors” (Novartis AG, priority 2014, dated 2017).
# Columns and labels:
# [1] = molecular target: cIAP2-MALT1 fusion protein (Homo sapiens, UniProt Q9UDY8); settings: read-out: NFkappaB reporter gene assay IC50; HEK293 stably expressing cIAP2-MALT1, luciferase, 24 h compound incubation
# Procedure: For the measurement of compound inhibition, 0.25 μl of test compound were mixed with 12.5 μl of enzyme in wells of the 384-well plates, and incubated for 60 minutes at room temperature (22° C.). After that, 12.5 μl of substrate was added, and the enzymatic reaction was allowed to proceed for 60 minutes at room temperature (22° C.). […] The DMSO content was between 0.9 and 1% (v/v). […] The IC50 value was calculated from the plot of percentage inhibition versus inhibitor concentration using non-linear regression analysis software (Origin, OriginLab Corporation, USA). The data were fitted using a 4 Parameter Logistic Model, characterized by the following equation: y=A2+(A1−A2)/(1+(x/IC50)^p) where y is the %-inhibition at the inhibitor concentration, x. A1 is the lowest inhibition value, and A2 the maximum inhibition value.
# [2] = molecular target: C-domain of MALT1 (amino acids 329-824) (Homo sapiens (Human), UniProt Q9UDY8); experiment: MALT1 biochemical assay (fluorescence lifetime enzyme activity assay); settings: 60 min pre-incubation, 2.5 nM enzyme, 1 μM peptide substrate
# Sequence of C-domain of MALT1 (amino acids 329-824) (Q9UDY8 329-824): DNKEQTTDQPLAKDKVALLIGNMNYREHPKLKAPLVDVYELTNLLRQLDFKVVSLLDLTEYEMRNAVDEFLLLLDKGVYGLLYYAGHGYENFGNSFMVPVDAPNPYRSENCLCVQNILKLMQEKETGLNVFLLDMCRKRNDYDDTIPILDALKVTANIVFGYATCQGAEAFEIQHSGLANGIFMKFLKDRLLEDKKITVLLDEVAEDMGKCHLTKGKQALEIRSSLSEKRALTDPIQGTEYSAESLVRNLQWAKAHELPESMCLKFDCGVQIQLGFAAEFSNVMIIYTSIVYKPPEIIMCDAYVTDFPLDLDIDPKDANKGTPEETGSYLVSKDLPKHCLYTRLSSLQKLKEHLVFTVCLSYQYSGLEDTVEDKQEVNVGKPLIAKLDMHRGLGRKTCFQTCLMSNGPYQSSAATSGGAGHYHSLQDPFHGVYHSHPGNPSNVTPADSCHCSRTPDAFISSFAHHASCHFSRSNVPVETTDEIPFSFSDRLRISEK
# Sequence of cIAP2-MALT1 fusion protein (Q9UDY8 2-824 limits assumed): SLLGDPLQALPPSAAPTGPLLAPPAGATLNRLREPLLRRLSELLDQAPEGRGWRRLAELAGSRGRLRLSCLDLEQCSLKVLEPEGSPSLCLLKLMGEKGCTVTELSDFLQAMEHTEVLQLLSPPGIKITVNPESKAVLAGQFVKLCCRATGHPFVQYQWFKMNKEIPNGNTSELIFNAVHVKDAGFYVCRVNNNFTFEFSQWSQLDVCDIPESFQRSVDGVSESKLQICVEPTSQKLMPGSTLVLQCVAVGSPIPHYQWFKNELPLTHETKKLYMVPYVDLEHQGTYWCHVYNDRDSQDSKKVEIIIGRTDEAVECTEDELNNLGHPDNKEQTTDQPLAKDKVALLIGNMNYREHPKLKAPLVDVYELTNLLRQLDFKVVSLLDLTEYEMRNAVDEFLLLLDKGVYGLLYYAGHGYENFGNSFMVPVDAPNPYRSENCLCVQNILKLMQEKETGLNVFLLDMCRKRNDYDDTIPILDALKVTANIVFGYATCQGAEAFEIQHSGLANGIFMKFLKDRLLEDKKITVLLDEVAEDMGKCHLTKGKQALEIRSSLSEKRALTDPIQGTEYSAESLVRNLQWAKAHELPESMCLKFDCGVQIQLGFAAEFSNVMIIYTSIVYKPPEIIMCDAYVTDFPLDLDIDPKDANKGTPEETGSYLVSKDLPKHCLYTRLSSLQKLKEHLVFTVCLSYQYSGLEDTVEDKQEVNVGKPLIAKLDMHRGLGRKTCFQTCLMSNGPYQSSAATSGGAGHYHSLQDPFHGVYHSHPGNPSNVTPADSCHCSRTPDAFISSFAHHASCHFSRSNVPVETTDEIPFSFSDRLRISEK
IC50 [1],IC50 [2],Structure (SMILES)
35 nM,,"CC1(c2c(NC(=O)Nc3cnc(-n4nccn4)c(Cl)c3)cnc3cc(Cl)nn23)CC1 [Example 16, 1-(5-chloro-6-(2H-1,2,3-triazol-2-yl)pyridin-3-yl)-3-(2-chloro-7-(1-methylcyclopropyl)pyrazolo[1,5-a]pyrimidin-6-yl)urea]"
354 nM,,"O=C(Nc1cnc(-n2nccn2)c(C(F)(F)F)c1)Nc1cnc2cc(Cl)nn2c1-c1ccco1 [Example 63, 1-(6-(2H-1,2,3-triazol-2-yl)-5-(trifluoromethyl)pyridin-3-yl)-3-(2-chloro-7-(furan-2-yl)pyrazolo[1,5-a]pyrimidin-6-yl)urea]"
678 nM,,"COc1ncc(NC(=O)Nc2cnc3cc(Cl)nn3c2-c2ccncc2)cc1Cl [Example 69, 1-(5-chloro-6-methoxypyridin-3-yl)-3-(2-chloro-7-(pyridin-4-yl)pyrazolo[1,5-a]pyrimidin-6-yl)urea]"
417 nM,,"COc1ncc(NC(=O)Nc2cnc3cc(Cl)nn3c2C2CCC(C)O2)cc1Cl (stereo not shown) [Example 87, 1-(5-chloro-6-methoxypyridin-3-yl)-3-(2-chloro-7-(5-methyltetrahydrofuran-2-yl)pyrazolo[1,5-a]pyrimidin-6-yl)urea]"
687 nM,,"CN1CCOC(c2c(NC(=O)Nc3cnc(-n4nccn4)c(Cl)c3)cnc3cc(Cl)nn23)C1 (stereo not shown) [Example 116, 1-(5-chloro-6-(2H-1,2,3-triazol-2-yl)pyridin-3-yl)-3-(2-chloro-7-(4-methylmorpholin-2-yl)pyrazolo[1,5-a]pyrimidin-6-yl)urea]"
218 nM,,"C[C@H](c1c(NC(=O)Nc2cnc(-n3nccn3)c(Cl)c2)cnc2cc(Cl)nn12)N(C)C [Example 121, (R)-1-(5-chloro-6-(2H-1,2,3-triazol-2-yl)pyridin-3-yl)-3-(2-chloro-7-(1-(dimethylamino)ethyl)pyrazolo[1,5-a]pyrimidin-6-yl)urea]"

# Second part, the compound before the results:
Structure (SMILES),IC50 [1],IC50 [2]
"CC(C)c1c(NC(=O)Nc2cc(Cl)c(-n3nccn3)nc2OC2CCN(C)C2)cnc2cc(Cl)nn12 (stereo not shown) [Example 33, 1-(5-chloro-2-((1-methylpyrrolidin-3-yl)oxy)-6-(2H-1,2,3-triazol-2-yl)pyridin-3-yl)-3-(2-chloro-7-isopropylpyrazolo[1,5-a]pyrimidin-6-yl)urea]",408 nM,30 nM
"COCCO[C@@H](C)c1c(NC(=O)Nc2ccnc(C(F)(F)F)c2)cnc2cc(Cl)nn12 [Example 41, (S)-1-(2-chloro-7-(1-(2-methoxyethoxy)ethyl)pyrazolo[1,5-a]pyrimidin-6-yl)-3-(2-(trifluoromethyl)pyridin-4-yl)urea]",356 nM,
"O=C(Nc1cnc(-n2nccn2)c(Cl)c1)Nc1cnc2cc(Cl)nn2c1C1COCCO1 (stereo not shown) [Example 43, 1-(5-chloro-6-(2H-1,2,3-triazol-2-yl)pyridin-3-yl)-3-(2-chloro-7-(1,4-dioxan-2-yl)pyrazolo[1,5-a]pyrimidin-6-yl)urea]",159 nM,
"COCC1(c2c(NC(=O)Nc3ccnc(C(F)(F)F)c3)cnc3cc(Cl)nn23)CCC1 [Example 51, 1-(2-chloro-7-(1-(methoxymethyl)cyclobutyl)pyrazolo[1,5-a]pyrimidin-6-yl)-3-(2-(trifluoromethyl)pyridin-4-yl)urea]",195 nM,
"O=C(Nc1cnc(-n2nccn2)c(Cl)c1)Nc1cnc2cc(Cl)nn2c1C1CC12CCOC2 (stereo not shown) [Example 68, 1-(5-chloro-6-(2H-1,2,3-triazol-2-yl)pyridin-3-yl)-3-(2-chloro-7-(5-oxaspiro[2.4]heptan-1-yl)pyrazolo[1,5-a]pyrimidin-6-yl)urea]",586 nM,
"CN1CCOCC1Cc1c(NC(=O)Nc2cnc(-n3nccn3)c(Cl)c2)cnc2cc(Cl)nn12 (stereo not shown) [Example 83, 1-(5-chloro-6-(2h-1,2,3-triazol-2-yl)pyridin-3-yl)-3-(2-chloro-7-((4-methylmorpholin-3-yl)methyl)pyrazolo[1,5-a]pyrimidin-6-yl)urea]",829 nM,
